Reference: patent US7208503B2, “Angiogenesis inhibiting 5-substituted-1,2,4-thiadiazolyl derivatives” (Janssen Pharmaceutica N.V., priority 2000, dated 2007)

System: rat aortic ring microvessel formation
Experiment: rat aortic ring model of angiogenesis (microvessel formation)
Format: cell-based
Conditions: 192 h; in vitro rat aortic rings, microvessel area after eight days in culture, compared to vehicle-treated control rings; read-out: IC50 (inhibition of microvessel formation, angiogenesis inhibitory activity)
Procedure: Angiogenesis inhibitory activity was measured in vitro using the rat aortic ring model of angiogenesis as described by Nicosia, R. F. and Ottinetti in “Laboratory Investigation”, vol. 63, p. 115, 1990. The ability of compounds to inhibit microvessel formation was compared to vehicle-treated control rings. Quantitation (microvessel area) following eight days in culture was performed using an image analysis system, consisting of a light microscope, a CCD camera and an automated, custom-designed image analysis program as described by Nissanov, J., Tuman, R. W., Gruver, L. M., and Fortunato, J. M. in “Laboratory Investigation”, vol 73 (#5), p. 734, 1995. Compounds were tested at several concentrations for determination of inhibitory potency (IC50's).

Structure (SMILES)	IC50 [nM]
Cc1nsc(-c2ccc(N3CCN(c4cccc(C(F)(F)F)c4)CC3)nc2)n1 [Compound 6, 1-[5-(3-methyl-1,2,4-thiadiazol-5-yl)-2-pyridinyl]-4-[3-(trifluoromethyl)-phenyl]-piperazine]	< 10
Cc1nsc(-c2ccc(N3CCN(c4cccc(C(F)(F)F)c4)CC3)cc2)n1 [Compound 2, 1-[4-(3-methyl-1,2,4-thiadiazol-5-yl)phenyl]-4-[3-(trifluoromethyl)phenyl]piperazine]	< 10
